From article PMC3914206

What was measured:
Type in all cases: binding
Conditions in all cases: Compound Concentration 10 µM
[1] = target: T1, panel of 442 kinases (Homo sapiens, UniProt P00533)
T1 construct: purchased KINOMEscan
Description: (§1) We assessed the selectivity of members of this scaffold using the KINOMEscan methodology across a near comprehensive panel of 442 kinases [[18,27]].

[2] = target: T2, panel of 442 kinases (Homo sapiens, UniProt Q9C098)
T2 construct: purchased KINOMEscan
T2 sequence (Q9C098 whole entry): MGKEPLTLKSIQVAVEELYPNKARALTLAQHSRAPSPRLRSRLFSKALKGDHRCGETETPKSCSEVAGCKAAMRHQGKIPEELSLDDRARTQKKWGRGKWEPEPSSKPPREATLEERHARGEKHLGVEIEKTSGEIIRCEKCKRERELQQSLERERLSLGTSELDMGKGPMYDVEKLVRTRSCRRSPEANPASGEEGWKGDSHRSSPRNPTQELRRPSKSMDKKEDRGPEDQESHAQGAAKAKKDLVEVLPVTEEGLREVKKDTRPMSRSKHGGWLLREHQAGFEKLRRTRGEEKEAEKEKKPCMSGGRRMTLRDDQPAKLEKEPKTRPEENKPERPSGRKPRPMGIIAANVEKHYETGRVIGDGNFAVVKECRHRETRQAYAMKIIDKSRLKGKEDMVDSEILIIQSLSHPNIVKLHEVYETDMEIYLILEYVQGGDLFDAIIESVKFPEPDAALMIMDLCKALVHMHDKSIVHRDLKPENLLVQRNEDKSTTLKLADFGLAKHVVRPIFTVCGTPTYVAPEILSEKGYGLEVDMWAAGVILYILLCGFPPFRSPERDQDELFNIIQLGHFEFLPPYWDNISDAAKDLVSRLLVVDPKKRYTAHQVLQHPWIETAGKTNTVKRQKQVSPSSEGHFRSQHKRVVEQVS
Description: as §1

[3] = target: T3, panel of 442 kinases (Homo sapiens, UniProt Q9NYY3)
T3 construct: purchased KINOMEscan
T3 sequence (Q9NYY3 whole entry): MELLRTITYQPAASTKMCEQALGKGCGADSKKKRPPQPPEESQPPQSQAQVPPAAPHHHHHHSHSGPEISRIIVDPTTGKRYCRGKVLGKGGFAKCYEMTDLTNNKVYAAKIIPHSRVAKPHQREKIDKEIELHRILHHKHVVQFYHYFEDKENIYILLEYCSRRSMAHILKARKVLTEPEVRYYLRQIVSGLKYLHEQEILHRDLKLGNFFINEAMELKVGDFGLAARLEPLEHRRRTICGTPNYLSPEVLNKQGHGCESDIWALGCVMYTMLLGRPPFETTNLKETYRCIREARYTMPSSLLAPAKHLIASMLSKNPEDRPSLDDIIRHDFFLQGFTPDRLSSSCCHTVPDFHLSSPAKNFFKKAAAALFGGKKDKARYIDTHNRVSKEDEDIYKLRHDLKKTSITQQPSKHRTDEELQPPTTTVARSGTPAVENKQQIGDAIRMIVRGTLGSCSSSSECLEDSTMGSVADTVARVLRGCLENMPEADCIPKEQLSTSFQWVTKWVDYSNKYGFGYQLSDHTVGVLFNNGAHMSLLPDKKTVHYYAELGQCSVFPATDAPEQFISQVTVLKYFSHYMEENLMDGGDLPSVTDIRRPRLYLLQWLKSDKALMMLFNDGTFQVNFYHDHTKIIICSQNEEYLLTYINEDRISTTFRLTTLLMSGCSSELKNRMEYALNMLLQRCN
Description: as §1

T1 sequence (P00533 25-1210): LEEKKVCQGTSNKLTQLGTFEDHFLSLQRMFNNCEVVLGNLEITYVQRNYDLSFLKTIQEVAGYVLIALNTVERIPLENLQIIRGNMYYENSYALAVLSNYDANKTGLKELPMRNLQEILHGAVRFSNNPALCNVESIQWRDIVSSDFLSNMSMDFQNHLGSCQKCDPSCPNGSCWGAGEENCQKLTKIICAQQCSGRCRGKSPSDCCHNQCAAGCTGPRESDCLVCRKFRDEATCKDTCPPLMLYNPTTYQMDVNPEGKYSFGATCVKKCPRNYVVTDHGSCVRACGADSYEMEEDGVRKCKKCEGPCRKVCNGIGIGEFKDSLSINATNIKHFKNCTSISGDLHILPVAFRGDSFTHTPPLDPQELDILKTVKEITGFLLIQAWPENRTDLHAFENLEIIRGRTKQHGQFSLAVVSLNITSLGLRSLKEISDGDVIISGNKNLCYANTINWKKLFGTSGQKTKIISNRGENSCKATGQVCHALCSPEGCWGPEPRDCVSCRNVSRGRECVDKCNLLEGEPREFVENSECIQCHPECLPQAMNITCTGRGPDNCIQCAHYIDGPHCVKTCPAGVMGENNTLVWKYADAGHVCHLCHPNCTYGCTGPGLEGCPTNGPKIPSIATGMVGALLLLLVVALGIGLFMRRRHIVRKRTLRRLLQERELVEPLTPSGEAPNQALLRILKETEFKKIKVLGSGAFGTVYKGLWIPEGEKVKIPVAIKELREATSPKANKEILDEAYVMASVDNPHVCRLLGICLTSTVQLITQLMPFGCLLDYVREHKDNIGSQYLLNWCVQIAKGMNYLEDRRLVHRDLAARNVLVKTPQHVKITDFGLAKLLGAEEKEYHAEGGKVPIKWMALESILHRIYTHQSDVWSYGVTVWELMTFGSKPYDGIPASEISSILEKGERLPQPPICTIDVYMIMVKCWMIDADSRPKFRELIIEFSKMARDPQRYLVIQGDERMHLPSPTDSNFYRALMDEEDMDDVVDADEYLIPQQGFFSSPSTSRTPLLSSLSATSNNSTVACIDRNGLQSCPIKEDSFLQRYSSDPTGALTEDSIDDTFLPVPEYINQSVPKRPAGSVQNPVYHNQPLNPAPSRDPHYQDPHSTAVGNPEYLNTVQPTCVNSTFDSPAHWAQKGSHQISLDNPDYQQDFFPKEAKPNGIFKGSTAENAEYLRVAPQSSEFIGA

Row | Compound | KINOMEscan: EGFR [1] | KINOMEscan: DCAMKL3 [2] | KINOMEscan: PLK2 [3]
1 | COc1cc(C(=O)N2CCC(N3CCN(C)CC3)CC2)ccc1Nc1ncc2c(n1)N(C)c1ccccc1C(=O)N2C [15 (LRRK2-IN-1)] | 84 | 90 | 100
2 | CCOc1cc(C(=O)N2CCC(N3CCN(C)CC3)CC2)ccc1Nc1ncc2c(n1)N(C1CCCC1)c1ccccc1C(=O)N2C [Compound 26] | 100 | 92 | 97
3 | COc1cc(C(=O)N2CCC(N3CCN(C)CC3)CC2)ccc1Nc1ncc2c(n1)N1CCc3cccc(c31)C(=O)N2C [Compound 24] | 74 |  | 8.8
4 | COc1cc(C(=O)N2CCC(N3CCN(C)CC3)CC2)ccc1Nc1ncc2c(n1)N(C1CCCC1)c1ccccc1C(=O)N2C [Compound 25, 11-cyclopentyl-2-((2-methoxy-4-(4-(4-methylpiperazin-1-yl)piperidine-1-carbonyl)phenyl)amino)-5-methyl-5H-benzo[e]pyrimido[5,4-b][1,4]diazepin-6(11H)-one] | 89 | 100 | 100
